Results published in patent US20230015308A1, “SUBSTITUTED THIAZOLE AROMATIC RING-BASED COMPOUND AND PREPARATION METHOD THEREFOR, HERBICIDAL COMPOSITION AND USE THEREOF” (QINGDAO KINGAGROOT CHEMICAL COMPOUND CO., LTD., priority 2019, published 2023).

Tests used:
Experiment in all cases: Weeding effect in post-emergence stage (greenhouse pot test)
Assay type in all cases: in vivo
Settings in all cases: 15 g a.i./ha, 3 weeks after application
Alopecurus japonicus = system: Alopecurus japonicus
Source text: (§1) The activity level criteria for plant damage (i.e., growth control rate) are as follows:
(§2) Level 5: growth control rate is above 85%;
(§3) Level 4: growth control rate is greater than or equal to 60% and less than 85%;
(§4) Level 3: growth control rate is greater than or equal to 40% and less than 60%;
(§5) Level 2: growth control rate is greater than or equal to 20% and less than 40%;
(§6) Level 1: growth control rate is greater than or equal to 5% and less than 20%;
(§7) Level 0: growth control rate is less than 5%.
(§8) The above growth control rates are fresh weight control rates.
(§9) Experiment on weeding effect in post-emergence stage:
(§10) Monocotyledonous and dicotyledonous weed seeds (Descurainia sophia, Capsella bursa-pastoris, Abutilon theophrasti, Galium aparine, Stellaria media, Lithospermum arvense, Rorippa indica, Alopecurus aequalis, Alopecurus japonicus, Beckmannia syzigachne, Sclerochloa dura, Conyza Canadensis, Phleum paniculatum, Veronica didyma Tenore, Eleusine indica, Bromus japonicus, Aegilops tauschii, Phalaris arundinacea, Amaranthus retroflexus, Chenopodium album, Commelina communis, Sonchus arvensis, Convolvulus arvensis, Cirsium setosum, Solanum nigrum, Acalypha australis, Digitaria sanguinalis, Echinochloa crusgalli, Setaria viridis, Setaria glauca, Leptochloa chinensis, Monochoria vaginalis, Sagittaria trifolia, Scirpus juncoides, Cyperus rotundus, Cyperus iria, Cyperus difformis, Fimbristylis, Portulaca oleracea, Xanthium sibiricum, Pharbitis nil) and major crop seeds (wheat, corn, rice, soybean, cotton, oilseed rape, millet, sorghum, potato, sesame, ricinus) were placed in plastic pots filled with soil, then covered with 0.5-2 cm of soil, allowed to grow in a good greenhouse environment. After 2 weeks of sowing, the test plants were treated in the 2-3 leaf stage. The tested compounds of the present invention were respectively dissolved in acetone, then added with Tween 80 and 1.5 liter/ha of emulsifiable concentrate of methyl oleate as synergist, diluted with a certain amount of water to obtain a solution with a certain concentration, and sprayed with a spray tower onto the plants. After the application, the plants were cultured for 3 weeks in the greenhouse, and then the experimental results of the weeding were counted. The doses of the used compounds were 500, 250, 125, 60, 15 g a.i./ha, and the averages were obtained by repeating for three times.

Setaria viridis = system: Setaria viridis
Source text: as §1, §2, §3, §4, §5, §6, §7, §8, §9, §10

Abutilon theophrasti = system: Abutilon theophrasti
Source text: as §1, §2, §3, §4, §5, §6, §7, §8, §9, §10

Echinochloa crusgalli = system: Echinochloa crusgalli
Source text: as §1, §2, §3, §4, §5, §6, §7, §8, §9, §10

Veronica didyma Tenore = system: Veronica didyma Tenore
Source text: as §1, §2, §3, §4, §5, §6, §7, §8, §9, §10

Beckmannia syzigachne = system: Beckmannia syzigachne
Source text: as §1, §2, §3, §4, §5, §6, §7, §8, §9, §10

Amaranthus retroflexus = system: Amaranthus retroflexus
Source text: as §1, §2, §3, §4, §5, §6, §7, §8, §9, §10

Galium aparine = system: Galium aparine
Source text: as §1, §2, §3, §4, §5, §6, §7, §8, §9, §10

Digitaria sanguinalis = system: Digitaria sanguinalis
Source text: as §1, §2, §3, §4, §5, §6, §7, §8, §9, §10

Structure (SMILES)	Alopecurus japonicus, activity level (fresh weight growth control rate) (Alopecurus japonicus)	Setaria viridis, activity level (fresh weight growth control rate) (Setaria viridis)	Abutilon theophrasti, activity level (fresh weight growth control rate) (Abutilon theophrasti)	Echinochloa crusgalli, activity level (fresh weight growth control rate) (Echinochloa crusgalli)	Veronica didyma Tenore, activity level (fresh weight growth control rate) (Veronica didyma Tenore)	Beckmannia syzigachne, activity level (fresh weight growth control rate) (Beckmannia syzigachne)	Amaranthus retroflexus, activity level (fresh weight growth control rate) (Amaranthus retroflexus)	Galium aparine, activity level (fresh weight growth control rate) (Galium aparine)	Digitaria sanguinalis, activity level (fresh weight growth control rate) (Digitaria sanguinalis)
CCOC(=O)c1cnc(-c2cc(-n3c(=O)cc(C(F)(F)F)n(C)c3=O)c(F)cc2Cl)s1 [1-2]	4 (Level 4: growth control rate is greater than or equal to 60% and less than 85%)	5 (Level 5: growth control rate is above 85%)	5 (Level 5: growth control rate is above 85%)	5 (Level 5: growth control rate is above 85%)	5 (Level 5: growth control rate is above 85%)	4 (Level 4: growth control rate is greater than or equal to 60% and less than 85%)	5 (Level 5: growth control rate is above 85%)	5 (Level 5: growth control rate is above 85%)	5 (Level 5: growth control rate is above 85%)
C=CCOC(=O)c1cnc(-c2cc(-n3c(=O)cc(C(F)(F)F)n(C)c3=O)c(F)cc2Cl)s1 [1-10]	3 (Level 3: growth control rate is greater than or equal to 40% and less than 60%)	5 (Level 5: growth control rate is above 85%)	5 (Level 5: growth control rate is above 85%)	5 (Level 5: growth control rate is above 85%)	5 (Level 5: growth control rate is above 85%)	3 (Level 3: growth control rate is greater than or equal to 40% and less than 60%)	5 (Level 5: growth control rate is above 85%)	5 (Level 5: growth control rate is above 85%)	4 (Level 4: growth control rate is greater than or equal to 60% and less than 85%)
C#CCOC(=O)c1cnc(-c2cc(-n3c(=O)cc(C(F)(F)F)n(C)c3=O)c(F)cc2Cl)s1 [1-12]	3 (Level 3: growth control rate is greater than or equal to 40% and less than 60%)	5 (Level 5: growth control rate is above 85%)	5 (Level 5: growth control rate is above 85%)	5 (Level 5: growth control rate is above 85%)	5 (Level 5: growth control rate is above 85%)	3 (Level 3: growth control rate is greater than or equal to 40% and less than 60%)	5 (Level 5: growth control rate is above 85%)	5 (Level 5: growth control rate is above 85%)	5 (Level 5: growth control rate is above 85%)
Cn1c(C(F)(F)F)cc(=O)n(-c2cc(-c3ncc(C(=O)OCC4CCCO4)s3)c(Cl)cc2F)c1=O (centres unmarked) [1-33]	3 (Level 3: growth control rate is greater than or equal to 40% and less than 60%)	5 (Level 5: growth control rate is above 85%)	5 (Level 5: growth control rate is above 85%)	5 (Level 5: growth control rate is above 85%)	5 (Level 5: growth control rate is above 85%)	3 (Level 3: growth control rate is greater than or equal to 40% and less than 60%)	5 (Level 5: growth control rate is above 85%)	5 (Level 5: growth control rate is above 85%)	5 (Level 5: growth control rate is above 85%)
Cn1c(C(F)(F)F)cc(=O)n(-c2cc(-c3ncc(C(=O)OCc4ccccc4)s3)c(Cl)cc2F)c1=O [1-35]	–	5 (Level 5: growth control rate is above 85%)	5 (Level 5: growth control rate is above 85%)	4 (Level 4: growth control rate is greater than or equal to 60% and less than 85%)	5 (Level 5: growth control rate is above 85%)	–	5 (Level 5: growth control rate is above 85%)	5 (Level 5: growth control rate is above 85%)	3 (Level 3: growth control rate is greater than or equal to 40% and less than 60%)
COC(=O)C(C)OC(=O)c1cnc(-c2cc(-n3c(=O)cc(C(F)(F)F)n(C)c3=O)c(F)cc2Cl)s1 (centres unmarked) [1-48]	–	5 (Level 5: growth control rate is above 85%)	5 (Level 5: growth control rate is above 85%)	5 (Level 5: growth control rate is above 85%)	5 (Level 5: growth control rate is above 85%)	–	5 (Level 5: growth control rate is above 85%)	5 (Level 5: growth control rate is above 85%)	4 (Level 4: growth control rate is greater than or equal to 60% and less than 85%)
CC(C)=NOC(=O)c1cnc(-c2cc(-n3c(=O)cc(C(F)(F)F)n(C)c3=O)c(F)cc2Cl)s1 [1-55]	–	5 (Level 5: growth control rate is above 85%)	5 (Level 5: growth control rate is above 85%)	5 (Level 5: growth control rate is above 85%)	5 (Level 5: growth control rate is above 85%)	–	5 (Level 5: growth control rate is above 85%)	5 (Level 5: growth control rate is above 85%)	5 (Level 5: growth control rate is above 85%)
CCOC(=O)c1csc(-c2cc(-n3c(=O)cc(C(F)(F)F)n(C)c3=O)c(F)cc2Cl)n1 [2-2]	–	–	5 (Level 5: growth control rate is above 85%)	–	5 (Level 5: growth control rate is above 85%)	–	5 (Level 5: growth control rate is above 85%)	5 (Level 5: growth control rate is above 85%)	4 (Level 4: growth control rate is greater than or equal to 60% and less than 85%)
CCOC(=O)c1csc(-c2cc(-n3c(=O)n(C)c(=S)n(C)c3=O)c(F)cc2Cl)n1 [2-113]	–	–	–	–	5 (Level 5: growth control rate is above 85%)	–	5 (Level 5: growth control rate is above 85%)	5 (Level 5: growth control rate is above 85%)	–
COC(=O)c1nc(-c2cc(-n3c(=O)cc(C(F)(F)F)n(C)c3=O)c(F)cc2Cl)cs1 [4-1]	–	–	–	4 (Level 4: growth control rate is greater than or equal to 60% and less than 85%)	5 (Level 5: growth control rate is above 85%)	–	5 (Level 5: growth control rate is above 85%)	–	–
COC(=O)c1nc(-c2cc(-n3c(=O)n(C)c(=S)n(C)c3=O)c(F)cc2Cl)cs1 [4-158]	–	–	–	–	5 (Level 5: growth control rate is above 85%)	–	5 (Level 5: growth control rate is above 85%)	5 (Level 5: growth control rate is above 85%)	–
